Measured values taken from PMC8838847, “Design, Synthesis and Cytotoxicity of Thiazole-Based Stilbene Analogs as Novel DNA Topoisomerase IB Inhibitors” (Molecules, 2022).

What was measured:
[1] = tested on: human colon cancer (HCT116) cells; assay: MTT cytotoxicity assay, HCT116; format: cell-based; settings: five doses 0.01-100 µM
Procedure: (§1) The cytotoxicity of the desired compounds was assessed through MTT assay against two human cancer cell lines, human breast cancer (MCF-7) and colon cancer (HCT116), and one normal cell line, human embryonic kidney 293T (HEK293T). CPT and etoposide (VP-16) were used as positive controls. The compounds were incubated with cells for 72 h in a five-dose assay ranging from 0.01 to 100 µΜ. After the drug treatments, MTT solution was added to test the percentage growth of tumor cells.
(§2) The cells were cultured on RPMI 1640 Medium at 37 °C in a humidified atmosphere with 5% CO2. The cytotoxicities of the target compounds were evaluated through MTT assay against two human cancer cell lines (human breast cancer MCF-7 and human colon cancer HCT116). For the compound treatment experiments, the cancer cells were treated with the compounds (pre-dissolved in DMSO) via a five-dose assay ranging from 10^−8 to 10^−4 M. After incubation for 72 h at 37 °C, MTT solution (20 μL, 2.5 mg/mL) in PBS (PBS without MTT as the blank) was added to each well of the culture plate. After incubation for 4 h, the formazan crystal formed in the well was dissolved in 100 μL of DMSO for an optical density of 570 nm. The IC50 value was calculated using nonlinear regression analysis (GraphPad Prism). Every experiment was conducted three times, independently.

[2] = target: T1, calf thymus Top1 (Bos taurus, UniProt F1MN93); assay: Top1-mediated DNA relaxation assay; format: biochemical; settings: for supercoiled DNA remaining: compound at 125 μM; for Relaxation Assay (Top1 inhibitory activity): compounds at 50 µM, semi-quantitative, relative to CPT at 50 µM
T1 construct: 1 unit of calf thymus Top1; from tissue; host or cells: calf thymus
T1 sequence (F1MN93 1-767): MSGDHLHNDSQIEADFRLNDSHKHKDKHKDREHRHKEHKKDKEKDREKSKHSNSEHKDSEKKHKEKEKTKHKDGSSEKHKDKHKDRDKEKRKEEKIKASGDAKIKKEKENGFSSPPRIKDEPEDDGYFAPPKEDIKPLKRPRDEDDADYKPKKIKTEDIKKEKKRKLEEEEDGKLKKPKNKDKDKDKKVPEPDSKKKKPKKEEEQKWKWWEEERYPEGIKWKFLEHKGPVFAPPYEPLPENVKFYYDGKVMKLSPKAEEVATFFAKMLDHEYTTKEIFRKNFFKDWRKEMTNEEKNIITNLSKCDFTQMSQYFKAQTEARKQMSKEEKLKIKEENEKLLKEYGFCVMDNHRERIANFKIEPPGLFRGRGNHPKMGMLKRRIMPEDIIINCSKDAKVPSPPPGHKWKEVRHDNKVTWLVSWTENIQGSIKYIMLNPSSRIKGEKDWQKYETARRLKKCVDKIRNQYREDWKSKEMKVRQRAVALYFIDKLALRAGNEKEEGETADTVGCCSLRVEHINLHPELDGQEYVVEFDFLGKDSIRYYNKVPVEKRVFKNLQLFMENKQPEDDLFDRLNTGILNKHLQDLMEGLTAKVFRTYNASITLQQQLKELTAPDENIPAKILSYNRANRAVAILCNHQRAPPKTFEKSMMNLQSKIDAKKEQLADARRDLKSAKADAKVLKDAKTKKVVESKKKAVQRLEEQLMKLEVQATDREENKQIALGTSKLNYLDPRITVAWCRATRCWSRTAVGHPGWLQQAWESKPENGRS
Procedure: The synthesized compounds 6–37 were evaluated for Top1 inhibitory activity by measurement of the Top1-mediated DNA relaxation assay. The compounds were tested at 50 µΜ using CPT as positive control, and the results were semi-quantitatively expressed relative to CPT at 50 µΜ as follows: ++++, more than 80% activity; +++, between 40% and 79% activity; ++, between 10% and 39% activity; +, less than 10% activity. […] In phenyl A, the 4-position halogen (X) remarkably affected the inhibition against Top1. […] In phenyl B, the introduction of substituents at the 3-position was beneficial for the Top1 inhibition, and the derivatives presented good tolerance of the 3-substituents, since compounds 8 (++++) and 13 (+++) with electron-donating -Me or -OMe and also compound 19 (+++) with electron-withdrawing -Br had good inhibition against Top1. For substituents at the 4-position, the strong electron-withdrawing -CF3 (10, +++) and -F (15, +++) increased the Top1 inhibitory activity compared to compound 6 (R = H), while the weak electron-withdrawing -Cl (17, +) and the electron-donating -Me (9, +) and -OMe (14, +) decreased the activity, with the exception of tert-Bu (11, +++).
As previously mentioned, compound 8 had the best inhibition activity against Top1, and therefore was selected for further investigation. A semi-quantitative Top1-mediated relaxation assay of compound 8 was performed at concentrations of 0.2, 1, 5, 25 and 125 μM.
The compounds were tested for their Top1 inhibitory activity using a Top1-mediated relaxation assay. Briefly, the reaction mixture (20 μL) with 0.5 μg of supercoiled pBR322 DNA in relaxation buffer (10 mM Tris-HCl, pH 7.5, 50 mM KCl, 5 mM MgCl2, 15 μg/mL BSA, 40 μg/mL DTT) was incubated with 1 unit of calf thymus Top1 in the absence or in the presence of the compound for 30 min at 37 °C. Then, the reaction solution was added with 6 × loading buffer (4 μL) and was analyzed using a 0.8% agarose gel in TBE buffer at 4.6 V/cm for 1.5 h. Gel was stained with 1 × GelRed for 30 min and subsequently visualized with a UV transilluminator.

[3] = MTT cytotoxicity assay, HEK293T normal cells; format: cell-based, human; settings: human, HEK293T cells (normal cell line)
Procedure: as §1, §2

[4] = tested on: human breast cancer (MCF-7) cells; assay: MTT cytotoxicity assay, MCF-7; format: cell-based; settings: five doses 0.01-100 µM
Procedure: as §1, §2

[5] = tested on: human embryonic kidney 293T (HEK293T) cells; assay: MTT cytotoxicity assay, HEK293T normal cells; format: cell-based; settings: 72 h, normal cell line
Procedure: as §1, §2

[6] = semi-quantitative relaxation assay (Figure 3)

Structure (SMILES) | IC50 ([1]; Homo sapiens, HCT-116, 72 h) [µM] | supercoiled DNA remaining [2, 6] [%] | IC50 at 72 h [3] [µM] | IC50 ([4]; Homo sapiens, MCF7, 72 h) [µM] | Top1 inhibition compared with CPT ([2]; compound at 25 μM, semi-quantitative relaxation assay (Figure 3)) | IC50 [5] [µM] | melting point [°C] | IC50 ([4]; 72 h) [µM] | IC50 ([1]; 72 h) [µM] | Relaxation Assay (Top1 inhibitory activity) [2]
CC[C@@]1(O)C(=O)OCc2c1cc1n(c2=O)Cc2cc3ccccc3nc2-1 [CPT, camptothecin, reference compound] | 0.012 ± 0.001 | 58 | 0.1 ± 0.003 | 0.34 ± 0.026 |  |  |  |  |  | 
Cc1cccc(/C=C/c2nc(-c3ccc(F)cc3)cs2)c1 [Compound 8, (E)-2-(3-methylstyryl)-4-(4-fluorophenyl)thiazole] |  | 75 | > 10 |  | equipotent Top1 inhibition with CPT | 10.2 ± 0.68 | 148 to 149 |  |  | 
CC(C)(C)c1ccc(/C=C/c2nc(-c3ccc(F)cc3)cs2)cc1 [Compound 11, (E)-2-(4-tert-butylstyryl)-4-(4-fluorophenyl)thiazole] |  |  | > 10 | < 10 |  | 12 ± 2.45 | 146 to 148 | 6.31 ± 0.51 |  | 
CC(C)(C)c1ccc(/C=C/c2nc(-c3ccc(Cl)cc3)cs2)cc1 [Compound 23, (E)-4-(4-chlorophenyl)-2-(4-(tert-butyl)styryl)thiazole] | < 5 |  | > 10 | < 10 |  | 18.7 ± 1.37 | 74 to 75 | 7.22 ± 0.4 | 2.87 ± 0.26 | + (less than 10% activity)
COc1ccccc1/C=C/c1nc(-c2ccc(Br)cc2)cs1 [Compound 30, (E)-4-(4-bromophenyl)-2-(2-methoxystyryl)thiazole] | > 100 |  |  | > 100 |  |  | 110 to 112 |  |  | + (less than 10% activity)
COc1cccc(/C=C/c2nc(-c3ccc(Br)cc3)cs2)c1 [Compound 31, (E)-4-(4-bromophenyl)-2-(3-methoxystyryl)thiazole] | 40.3 ± 7.8 |  |  | 45.8 ± 4.47 |  |  | 112 to 113 |  |  | + (less than 10% activity)
COc1ccc(/C=C/c2nc(-c3ccc(Br)cc3)cs2)cc1 [Compound 32, (E)-4-(4-bromophenyl)-2-(4-methoxystyryl)thiazole] | > 100 |  |  | > 100 |  |  | 189 to 191 |  |  | + (less than 10% activity)
Oc1ccccc1/C=C/c1nc(-c2ccc(Br)cc2)cs1 [Compound 33, (E)-2-(2-(4-(4-bromophenyl)thiazol-2-yl)vinyl)phenol] | < 5 |  |  | 39.2 ± 1.79 |  |  | 226 to 228 |  | 4.15 ± 0.76 | + (less than 10% activity)
Oc1ccc(/C=C/c2nc(-c3ccc(Br)cc3)cs2)cc1 [Compound 35, (E)-4-(2-(4-(4-bromophenyl)thiazol-2-yl)vinyl)phenol] | < 5 |  |  | 38 ± 5.82 |  |  | 204 to 205 |  | 2.86 ± 0.46 | + (less than 10% activity)
CC(C)=CCOc1ccc(/C=C/c2nc(-c3ccc(Br)cc3)cs2)cc1 [Compound 37, (E)-4-(4-bromophenyl)-2-(4-((3-methylbut-2-en-1-yl)oxy)styryl)thiazole] | > 100 |  |  | > 100 |  |  | 134 to 135 |  |  | + (less than 10% activity)
